Measurements reported in publication PMC4516925, “Three Peptide Modulators of the Human Voltage-Gated Sodium Channel 1.7, an Important Analgesic Target, from the Venom of an Australian Tarantula” (Toxins, 2015).
“Also recorded” adds a separate entry of the source. Where a SMILES comes first, the peptide text is derived from it. Bridges are numbered along the chain shown (N, C = ends).

Legend:
hNaV1.7 [1] = target: T1, hNaV1.7 (Homo sapiens, UniProt Q15858); test: Current-voltage (I-V) relationship / V0.5 of activation of hNaV1.7; assay type: cell-based; details: 300 nM and 1 μM; n = 6
T1 construct: expressed in transfected cells; host or cells: Xenopus oocytes (cRNA injection)
Description: Plasmids containing cloned rNaV1.2, hNaV1.5 and hNaV1.7 were linearised, then capped cRNAs were synthesised using a T7 mMESSAGE-mMACHINE transcription kit (Ambion, Austin, TX, USA). Stage V-VI oocytes were obtained from anesthetised Xenopus frogs and prepared as previously described. Oocytes were injected with 20–40 ng of cRNA (Nanoject 2000; WPI, Sarasota, FL, USA) and incubated for 2–6 days at 17 °C in ND96 solution (96 mM NaCl, 2 mM KCl, 1 mM CaCl2, 2 mM MgCl2, 5 mM HEPES, pH 7.4), supplemented with 2.5 mM sodium pyruvate, 50 μg/mL gentamicin and 2.5% horse serum prior to electrophysiological recordings. All work with animals was carried out in strict accordance with the recommendations in the Australian code of practice for the care and use of animals for scientific purposes. The protocol was approved by the Anatomical Biosciences group of the Animal Ethics Committee at The University of Queensland (Approval Number QBI/059/13/ARC/NHMRC). […]
(§1) NaV channel recordings were performed on oocytes clamped at −80 mV. […] Data were analysed using Clampfit 10.2 and Prism 6.0 (GrahPad Software, La Jolla, CA, USA, 2013). […] Data were normalised to the maximal peak current and analysed using Clampfit 10.2 and Prism 6.0.

hNaV1.7 [2] = target: T1, hNaV1.7; test: Inhibition of hNaV1.7 currents, two-electrode voltage clamp in Xenopus oocytes; assay type: cell-based; details: TEVC; for IC50 / Hill coefficient, inhibition of hNaV1.7: Xenopus oocytes, n = 5–7; for IC50: 50-ms step to 0 mV from −80 mV every 10 s, ND96 pH 7.4 with 0.1% BSA, 20 °C–22 °C, Hill equation, mean ± S.E.M.; for Selectivity, hNaV1.7 versus rNaV1.2 and hNaV1.5 (in words): comparison with rNaV1.2 and hNaV1.5, Xenopus oocytes; for Hill coefficient, inhibition of hNaV1.7: from concentration-effect curve
Description: (§2) Plasmids containing cloned rNaV1.2, hNaV1.5 and hNaV1.7 were linearised, then capped cRNAs were synthesised using a T7 mMESSAGE-mMACHINE transcription kit (Ambion, Austin, TX, USA). Stage V-VI oocytes were obtained from anesthetised Xenopus frogs and prepared as previously described. Oocytes were injected with 20–40 ng of cRNA (Nanoject 2000; WPI, Sarasota, FL, USA) and incubated for 2–6 days at 17 °C in ND96 solution (96 mM NaCl, 2 mM KCl, 1 mM CaCl2, 2 mM MgCl2, 5 mM HEPES, pH 7.4), supplemented with 2.5 mM sodium pyruvate, 50 μg/mL gentamicin and 2.5% horse serum prior to electrophysiological recordings. All work with animals was carried out in strict accordance with the recommendations in the Australian code of practice for the care and use of animals for scientific purposes. The protocol was approved by the Anatomical Biosciences group of the Animal Ethics Committee at The University of Queensland (Approval Number QBI/059/13/ARC/NHMRC).
(§3) Two-electrode voltage clamp (TEVC) recordings were performed at room temperature (20 °C–22 °C) under voltage-clamp (Axoclamp 900A, Molecular Devices, Sunnyvale, CA, USA) using two standard glass microelectrodes of 0.5–1 MΩ resistance when filled with 3 M KCl solution. Stimulation, data acquisition, and analysis were performed using pCLAMP software (Version 10, Molecular Devices, Sunnyvale, CA, USA). Peptide stock solutions were made up to 30 μM, and serial dilutions were prepared in ND96 solution (pH 7.4) containing 0.1% bovine serum albumin (BSA). Venom peptides were applied directly to the recording chamber to prevent adsorption to plastics.
(§4) NaV channel recordings were performed on oocytes clamped at −80 mV. Data were sampled at 20 kHz and filtered at 2 kHz. Inward sodium currents were elicited by a 50-ms depolarising step to 0 mV every 10 s. Once the peak current had stabilised (typically ~3 min), serial dilutions of peptides were applied to oocytes to obtain concentration-effect curves. Data were analysed using Clampfit 10.2 and Prism 6.0 (GrahPad Software, La Jolla, CA, USA, 2013). The Hill equation was fit to the data to obtain the half-maximal inhibitory concentration (IC50) values and Hill coefficient (nH). Data are presented as mean ± S.E.M. (n = number of oocytes). I-V relationships in the absence and presence of 300 nM and 1 μM peptide were obtained on oocytes clamped at −80 mV; families of currents were evoked by applying 50-ms depolarising steps from −60 mV to +70 mV with 10-mV increments every 10 s. After acquiring the control I–V curve, the first concentration of peptide was added and the inhibitory effect was allowed to plateau (a test pulse from −80 to 0 mV every 10 s) before obtaining an I–V curve in the presence of peptide. This was repeated for the second concentration of peptide. Data were normalised to the maximal peak current and analysed using Clampfit 10.2 and Prism 6.0.

hNaV1.5 = target: T2, hNaV1.5 (Homo sapiens, UniProt Q14524); test: Inhibition of hNaV1.5 currents, two-electrode voltage clamp in Xenopus oocytes; assay type: cell-based; details: TEVC
T2 construct: expressed in transfected cells; host or cells: Xenopus oocytes (cRNA injection)
Description: as §2, §3
as §1, with “mV. Data were sampled at 20 kHz and filtered at 2 kHz. Inward sodium currents were elicited by a 50-ms depolarising step to 0 mV every 10 s.” for “mV.”

rNaV1.2 = target: T3, rNaV1.2 (Rattus norvegicus, UniProt P04775); test: Inhibition of rNaV1.2 currents, two-electrode voltage clamp in Xenopus oocytes; assay type: cell-based; details: TEVC; for inhibition at 1 µM: 1 μM peptide, 50-ms step to 0 mV from −80 mV every 10 s
T3 construct: expressed in transfected cells; host or cells: Xenopus oocytes (cRNA injection)
Description: as §2, §3
as §4, with “After acquiring the control I–V curve, the first concentration of peptide was added and the inhibitory effect was allowed to plateau (a test pulse from −80 to 0 mV every 10 s) before obtaining an I–V curve in the presence of peptide. This was repeated for the second concentration of peptide.” left out

hNaV1.7 [3] = target: T1, hNaV1.7; details: cited from earlier work
human NaV1.8 = details: cited from earlier work
Text: (§5) Approximately 12% of spider toxins are C-terminally amidated. In addition to a possible role in peptide stability, C-terminal amidation can modulate biological activity. The 35-residue spider-venom peptide huwentoxin-IV (HwTx-IV) is a member of NaSpTx Family 1 isolated from venom of the tarantula Haplopelma schmidti (formerly known as Ornithoctonus huwena). Remarkably, native HwTx-IV with C-terminal amidation inhibits hNaV1.7 with is ~50-fold higher potency than a recombinant version with a C-terminal carboxylate group. Although not in the same peptide family as HwTx-IV (NaSpTx F ...

human NaV1.5 = details: cited from earlier work
Text: as §5

NaV channels = details: cited from earlier work
Text: as §5, with “[…] Thus, we investigated” for “Although not in”, “effects of Phlogius peptides on the current-voltage (I-V) relationship for hNaV1.7 using step-depolarisations ranging from −60 to +70 mV from a holding potential of −80 mV.” for “same peptide family as HwTx-IV (NaSpTx F ...”

NaV1.2 [4] = details: cited from earlier work
NaV1.5 = details: cited from earlier work
NaV1.2 [5] = details: chimeric KV1.2/NaV1.2 channels; rat NaV1.2; cited from earlier work
[6] = tested on: sodium channel domain II voltage sensor; details: gating modifier; cited from earlier work

T2 sequence (Q14524 whole entry): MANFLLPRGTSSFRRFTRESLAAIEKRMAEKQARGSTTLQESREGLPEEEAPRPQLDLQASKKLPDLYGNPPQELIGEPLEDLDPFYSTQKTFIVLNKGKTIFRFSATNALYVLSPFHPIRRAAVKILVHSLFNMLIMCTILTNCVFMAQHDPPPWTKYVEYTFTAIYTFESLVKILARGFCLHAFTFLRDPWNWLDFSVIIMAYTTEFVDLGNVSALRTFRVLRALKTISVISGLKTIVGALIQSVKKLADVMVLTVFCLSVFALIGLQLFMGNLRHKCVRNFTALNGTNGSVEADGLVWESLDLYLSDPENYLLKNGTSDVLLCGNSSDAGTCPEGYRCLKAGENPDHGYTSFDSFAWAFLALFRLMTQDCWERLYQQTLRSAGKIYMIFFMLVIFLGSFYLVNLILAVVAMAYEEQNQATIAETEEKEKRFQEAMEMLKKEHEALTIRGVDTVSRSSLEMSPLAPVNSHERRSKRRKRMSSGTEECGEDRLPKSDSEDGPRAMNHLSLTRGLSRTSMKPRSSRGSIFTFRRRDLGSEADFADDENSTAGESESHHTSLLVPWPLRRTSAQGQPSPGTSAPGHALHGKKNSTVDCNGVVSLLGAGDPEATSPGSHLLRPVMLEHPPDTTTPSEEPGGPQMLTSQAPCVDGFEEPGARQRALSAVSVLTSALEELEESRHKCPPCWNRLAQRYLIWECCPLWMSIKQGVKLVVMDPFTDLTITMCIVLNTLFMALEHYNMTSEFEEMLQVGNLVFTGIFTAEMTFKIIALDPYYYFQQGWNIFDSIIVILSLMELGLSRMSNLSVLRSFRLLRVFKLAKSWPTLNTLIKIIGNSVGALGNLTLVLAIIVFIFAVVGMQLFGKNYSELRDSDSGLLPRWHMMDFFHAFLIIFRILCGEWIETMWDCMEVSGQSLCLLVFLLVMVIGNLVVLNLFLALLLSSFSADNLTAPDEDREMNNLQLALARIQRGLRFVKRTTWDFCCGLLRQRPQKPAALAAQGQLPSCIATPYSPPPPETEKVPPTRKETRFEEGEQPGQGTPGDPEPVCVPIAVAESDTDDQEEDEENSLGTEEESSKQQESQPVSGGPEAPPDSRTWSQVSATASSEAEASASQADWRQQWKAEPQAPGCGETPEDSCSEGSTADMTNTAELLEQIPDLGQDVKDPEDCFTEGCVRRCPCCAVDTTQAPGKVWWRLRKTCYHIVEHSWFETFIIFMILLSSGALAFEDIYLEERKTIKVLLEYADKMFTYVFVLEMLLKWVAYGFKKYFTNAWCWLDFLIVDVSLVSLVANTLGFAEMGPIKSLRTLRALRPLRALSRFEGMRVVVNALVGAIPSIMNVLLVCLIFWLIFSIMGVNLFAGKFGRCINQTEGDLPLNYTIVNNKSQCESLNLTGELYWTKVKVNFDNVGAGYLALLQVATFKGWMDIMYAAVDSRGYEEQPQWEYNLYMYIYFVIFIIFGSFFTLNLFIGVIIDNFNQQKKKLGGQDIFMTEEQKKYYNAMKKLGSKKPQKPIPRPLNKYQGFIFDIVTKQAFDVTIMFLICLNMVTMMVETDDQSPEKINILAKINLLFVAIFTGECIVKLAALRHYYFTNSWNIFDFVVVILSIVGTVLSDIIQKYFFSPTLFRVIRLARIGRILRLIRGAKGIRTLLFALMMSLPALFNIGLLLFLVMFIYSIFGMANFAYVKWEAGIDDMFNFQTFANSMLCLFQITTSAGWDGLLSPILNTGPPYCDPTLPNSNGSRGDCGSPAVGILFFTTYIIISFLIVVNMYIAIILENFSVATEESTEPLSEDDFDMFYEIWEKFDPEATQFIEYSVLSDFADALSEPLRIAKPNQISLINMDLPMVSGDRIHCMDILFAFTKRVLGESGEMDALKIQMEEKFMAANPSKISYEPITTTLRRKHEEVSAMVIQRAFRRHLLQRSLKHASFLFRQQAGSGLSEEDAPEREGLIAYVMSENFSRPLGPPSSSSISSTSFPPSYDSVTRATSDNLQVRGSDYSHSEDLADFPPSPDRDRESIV
T3 sequence (P04775 whole entry): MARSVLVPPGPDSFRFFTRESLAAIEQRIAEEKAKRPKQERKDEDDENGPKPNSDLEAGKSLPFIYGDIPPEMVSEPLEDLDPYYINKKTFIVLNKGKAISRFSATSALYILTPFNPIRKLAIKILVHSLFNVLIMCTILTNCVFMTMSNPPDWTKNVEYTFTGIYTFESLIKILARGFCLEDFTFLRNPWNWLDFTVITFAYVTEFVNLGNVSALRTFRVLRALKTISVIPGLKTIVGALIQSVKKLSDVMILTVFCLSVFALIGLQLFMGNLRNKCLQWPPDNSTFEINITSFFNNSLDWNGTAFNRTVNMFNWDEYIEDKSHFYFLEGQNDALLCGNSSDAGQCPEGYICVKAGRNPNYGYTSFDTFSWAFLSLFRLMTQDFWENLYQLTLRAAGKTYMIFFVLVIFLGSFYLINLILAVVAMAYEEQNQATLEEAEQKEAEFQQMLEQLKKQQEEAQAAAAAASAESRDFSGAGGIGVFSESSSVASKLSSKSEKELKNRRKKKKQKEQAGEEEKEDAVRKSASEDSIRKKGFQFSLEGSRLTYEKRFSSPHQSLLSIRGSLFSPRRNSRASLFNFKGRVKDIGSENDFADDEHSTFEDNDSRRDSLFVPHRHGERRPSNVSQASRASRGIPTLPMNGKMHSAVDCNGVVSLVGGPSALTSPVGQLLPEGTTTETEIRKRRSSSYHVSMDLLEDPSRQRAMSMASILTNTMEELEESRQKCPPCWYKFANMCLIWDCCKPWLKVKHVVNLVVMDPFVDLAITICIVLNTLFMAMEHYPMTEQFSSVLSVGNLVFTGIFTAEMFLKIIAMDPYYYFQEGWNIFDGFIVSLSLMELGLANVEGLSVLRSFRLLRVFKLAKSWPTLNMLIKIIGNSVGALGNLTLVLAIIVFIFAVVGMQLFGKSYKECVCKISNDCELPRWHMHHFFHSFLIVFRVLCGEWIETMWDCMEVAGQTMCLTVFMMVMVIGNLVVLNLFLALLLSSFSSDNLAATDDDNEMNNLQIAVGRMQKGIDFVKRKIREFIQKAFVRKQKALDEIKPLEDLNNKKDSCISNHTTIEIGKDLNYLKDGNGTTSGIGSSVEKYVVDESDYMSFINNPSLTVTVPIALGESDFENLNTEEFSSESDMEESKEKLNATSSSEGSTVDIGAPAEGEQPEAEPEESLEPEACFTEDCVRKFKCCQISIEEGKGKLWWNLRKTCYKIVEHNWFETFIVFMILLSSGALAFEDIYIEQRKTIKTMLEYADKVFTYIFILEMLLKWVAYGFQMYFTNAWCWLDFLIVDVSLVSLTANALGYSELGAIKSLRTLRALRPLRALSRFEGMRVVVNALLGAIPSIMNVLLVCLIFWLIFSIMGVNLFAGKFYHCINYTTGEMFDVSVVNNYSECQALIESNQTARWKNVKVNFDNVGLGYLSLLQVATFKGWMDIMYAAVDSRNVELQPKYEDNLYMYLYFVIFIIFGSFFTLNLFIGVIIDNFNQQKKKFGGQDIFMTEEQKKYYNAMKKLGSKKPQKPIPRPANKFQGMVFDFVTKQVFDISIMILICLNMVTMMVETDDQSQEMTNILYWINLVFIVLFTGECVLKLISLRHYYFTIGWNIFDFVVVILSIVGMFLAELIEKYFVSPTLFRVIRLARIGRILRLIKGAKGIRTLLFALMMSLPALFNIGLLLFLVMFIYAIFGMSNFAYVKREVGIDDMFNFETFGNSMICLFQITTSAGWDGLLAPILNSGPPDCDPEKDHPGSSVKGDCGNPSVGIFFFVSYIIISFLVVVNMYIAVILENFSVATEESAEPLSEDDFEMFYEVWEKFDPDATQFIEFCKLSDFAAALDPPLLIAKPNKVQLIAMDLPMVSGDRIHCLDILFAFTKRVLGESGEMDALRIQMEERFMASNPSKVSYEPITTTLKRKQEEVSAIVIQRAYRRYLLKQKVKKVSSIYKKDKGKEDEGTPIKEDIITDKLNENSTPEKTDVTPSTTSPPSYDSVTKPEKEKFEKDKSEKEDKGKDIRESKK

Compound	Effect on I-V relationship of hNaV1.7 (in words) (hNaV1.7 [1])	IC50 (hNaV1.7 [2])	Selectivity, hNaV1.7 versus rNaV1.2 and hNaV1.5 (in words) (hNaV1.7 [2])	Hill coefficient, inhibition of hNaV1.7 (hNaV1.7 [2])	Effect on hNaV1.5 (in words) (hNaV1.5)	inhibition at 1 µM (rNaV1.2)	Effect on rNaV1.2 (in words) (rNaV1.2)	further results
CC[C@H](C)[C@H](NC(=O)[C@@H](NC(=O)[C@H](Cc1c[nH]c2ccccc12)NC(=O)[C@H](CC(=O)O)NC(=O)[C@H](Cc1c[nH]c2ccccc12)NC(=O)[C@@H](NC(=O)[C@@H]1CSSC[C@@H]2NC(=O)[C@H](CC(=O)O)NC(=O)[C@H](CO)NC(=O)[C@H](CC(=O)O)NC(=O)[C@H](CCCCN)NC(=O)[C@H](CO)NC(=O)[C@@H]3CSSC[C@H](NC(=O)[C@H](CCC(=O)O)NC(=O)[C@H](CC(C)C)NC(=O)[C@H](Cc4c[nH]cn4)NC(=O)[C@H](C)NC(=O)[C@H](CSSC[C@H](NC(=O)[C@H](C)N)C(=O)N[C@@H](CCCNC(=N)N)C(=O)N[C@@H](CCC(=O)O)C(=O)N[C@@H](CC(C)C)C(=O)N[C@@H](CC(C)C)C(=O)NCC(=O)NCC(=O)N3)NC2=O)C(=O)N[C@@H](CCCNC(=N)N)C(=O)N[C@@H](CCCCN)C(=O)N[C@@H](CCCCN)C(=O)N[C@@H](Cc2c[nH]c3ccccc23)C(=O)N2CCC[C@H]2C(=O)N[C@@H](Cc2ccc(O)cc2)C(=O)N[C@@H](Cc2c[nH]cn2)C(=O)N1)C(C)C)[C@@H](C)O)C(N)=O [Phlo1a] (H-ACRELLGGCSKDSDCCAHLECRKKWPYHCVWDWTI-NH2; disulfide 2-16, 9-21, 15-29 (inferred); N-terminus assumed)	concentration-dependent, depolarising shifts in the I-V relationship for hNaV1.7	459 nM	inhibited rNaV1.2 and hNaV1.5 much less potently than hNaV1.7; also recorded: inhibit hNaV1.7 more potently than rNaV1.2 and hNaV1.5; also recorded: high level of selectivity for NaV1.7 over NaV1.2 and NaV1.5	0.87	only minor inhibitory activity	< 20%	only minor inhibitory activity	inhibition at 1 µM (hNaV1.5; 1 μM peptide, 50-ms step to 0 mV from −80 mV every 10 s): < 20%
CC(C)C[C@@H]1NC(=O)[C@H](CC(C)C)NC(=O)[C@H](CCC(=O)O)NC(=O)[C@H](CCCNC(=N)N)NC(=O)[C@@H](NC(=O)[C@H](C)N)CSSC[C@@H]2NC(=O)[C@@H]3CSSC[C@@H](C(=O)N[C@H](C(=O)N[C@@H](Cc4c[nH]c5ccccc45)C(=O)N[C@@H](CC(=O)O)C(=O)N[C@@H](Cc4c[nH]c5ccccc45)C(=O)N[C@H](C(=O)N[C@@H](Cc4ccccc4)C(N)=O)[C@@H](C)O)C(C)C)NC(=O)[C@H](Cc4c[nH]cn4)NC(=O)[C@H](Cc4ccc(O)cc4)NC(=O)[C@@H]4CCCN4C(=O)[C@H](Cc4c[nH]c5ccccc45)NC(=O)[C@H](CCCCN)NC(=O)[C@H](CCCCN)NC(=O)[C@H](CCCNC(=N)N)NC(=O)[C@H](CSSC[C@H](NC(=O)CNC(=O)CNC1=O)C(=O)N[C@@H](CO)C(=O)N[C@@H](CCCCN)C(=O)N[C@@H](CC(=O)O)C(=O)N[C@@H](CO)C(=O)N[C@@H](CC(=O)O)C(=O)N3)NC(=O)[C@H](CCC(=O)O)NC(=O)[C@H](CC(C)C)NC(=O)[C@H](Cc1c[nH]cn1)NC(=O)[C@H](C)NC2=O [Phlo1b] (H-ACRELLGGCSKDSDCCAHLECRKKWPYHCVWDWTF-NH2; disulfide 2-16, 9-21, 15-29 (inferred); N-terminus assumed)	concentration-dependent, depolarising shifts in the I-V relationship for hNaV1.7	360 nM	inhibit hNaV1.7 more potently than rNaV1.2 and hNaV1.5	1.04	only minor inhibitory activity; also recorded: a similar effect as Phlo1a at hNaV1.5	37%	only minor inhibitory activity; also recorded: slightly more potent at rNaV1.2	–
HwTx-IV	–	–	–	–	–	–	–	Fold higher potency at hNaV1.7, native amidated vs recombinant C-terminal carboxylate (hNaV1.7 [3]; native HwTx-IV (C-terminal amide) versus recombinant version with C-terminal carboxylate, no reference printed at the sentence (isolation: ref 24)): ~ 50 fold
ProTx-I	–	–	–	–	–	–	–	Blockade of human NaV1.7 (in words) (hNaV1.7 [3]): potent blocker; Blockade of human NaV1.8 (in words) (human NaV1.8): potent blocker; Blockade of human NaV1.5 (in words) (human NaV1.5): potent blocker; Effect on NaV channel activation (in words) (NaV channels): inhibit NaV channels by shifting the threshold for channel activation to more positive potentials
ProTx-II: most potent blocker of hNaV1.7 within NaSpTx family 3	–	–	–	–	–	–	–	IC50 (NaV1.2 [4]): 41 nM; IC50 (NaV1.5): 79 nM; Binding to NaV1.5 receptor site 4 (in words) (NaV1.5; mutagenesis study of NaV1.5): does not bind to receptor site 4 on the domain II voltage sensor; Effect on NaV1.5 gating (in words) (NaV1.5; voltage-dependence of activation): shifts the voltage-dependence of activation of NaV1.5 to more positive potentials; Activity (channel type), NaSpTx3 alignment (NaV channels; Figure 8C annotation, no reference given): Nav; Voltage sensors bound (in words) (NaV1.2 [5]): binds to the voltage sensors in domains I, II and IV of rat NaV1.2; also recorded: binding to the voltage sensors in domains I, II (receptor site 4), and IV (receptor site 3) of NaV1.2; Mechanism of sodium conductance reduction (in words) [6]: reduces sodium conductance by trapping the domain II voltage sensor in the closed state
